Assay results taken from ChEMBL document CHEMBL1152021, “(E) and (Z)-3-Styrylpiperidines as sigma ligands” (Bioorg Med Chem Lett, 1997).

Tests used:
[1] = biological target: Sigma non-opioid intracellular receptor 1 (Rattus norvegicus, UniProt Q9R0C9); assay: Binding affinity at sigma receptor by [3H](+)-SKF-10047 displacement.
D(1A) dopamine receptor = D(1A) dopamine receptor (Rattus norvegicus, UniProt P18901); assay: Binding affinity at dopamine D1 receptor in rat striatum by [3H][…] displacement.; assay type: tissue-based
D(2) dopamine receptor = D(2) dopamine receptor (Rattus norvegicus, UniProt P61169); assay: Binding affinity at dopamine D2 receptor in rat striatum by [3H]spiperone displacement.; assay type: tissue-based
Sequence of D(2) dopamine receptor (P61169 whole entry): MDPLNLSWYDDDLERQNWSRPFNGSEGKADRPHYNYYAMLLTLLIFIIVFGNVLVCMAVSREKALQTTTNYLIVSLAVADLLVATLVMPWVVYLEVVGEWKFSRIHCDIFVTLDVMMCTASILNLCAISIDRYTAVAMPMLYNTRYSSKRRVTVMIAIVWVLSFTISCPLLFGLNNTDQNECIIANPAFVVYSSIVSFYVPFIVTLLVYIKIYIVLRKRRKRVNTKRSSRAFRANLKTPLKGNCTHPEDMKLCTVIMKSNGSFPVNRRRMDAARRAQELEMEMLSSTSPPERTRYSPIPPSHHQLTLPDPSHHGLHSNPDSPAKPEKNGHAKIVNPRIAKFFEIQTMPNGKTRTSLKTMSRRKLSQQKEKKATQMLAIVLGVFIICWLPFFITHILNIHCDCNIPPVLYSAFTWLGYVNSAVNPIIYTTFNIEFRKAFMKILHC

Sequence of D(1A) dopamine receptor (P18901 whole entry): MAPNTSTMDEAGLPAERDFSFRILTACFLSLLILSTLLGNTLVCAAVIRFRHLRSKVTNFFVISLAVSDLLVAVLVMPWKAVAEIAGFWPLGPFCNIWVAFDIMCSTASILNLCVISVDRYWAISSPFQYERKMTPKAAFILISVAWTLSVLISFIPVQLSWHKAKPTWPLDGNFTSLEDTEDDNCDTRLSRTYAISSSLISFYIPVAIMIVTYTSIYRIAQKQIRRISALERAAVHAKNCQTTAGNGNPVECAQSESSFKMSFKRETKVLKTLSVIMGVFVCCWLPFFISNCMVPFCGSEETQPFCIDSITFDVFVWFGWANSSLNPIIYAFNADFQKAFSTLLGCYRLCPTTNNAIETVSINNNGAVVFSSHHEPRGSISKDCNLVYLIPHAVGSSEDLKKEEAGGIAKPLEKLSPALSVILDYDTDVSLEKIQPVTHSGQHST
Sequence of Sigma non-opioid intracellular receptor 1 (Q9R0C9 whole entry): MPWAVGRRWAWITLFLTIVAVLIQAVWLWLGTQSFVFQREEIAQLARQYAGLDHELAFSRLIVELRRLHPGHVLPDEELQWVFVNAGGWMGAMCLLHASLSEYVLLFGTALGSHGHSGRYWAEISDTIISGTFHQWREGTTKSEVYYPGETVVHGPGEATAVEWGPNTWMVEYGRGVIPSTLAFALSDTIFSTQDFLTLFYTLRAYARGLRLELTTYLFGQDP

Compound	IC50 [1] [nM]	IC50 (D(1A) dopamine receptor) [nM]	IC50 (D(2) dopamine receptor) [nM]
C(=C\C1CCCN(CCCc2ccccc2)C1)/c1ccccc1 (stereo not drawn)	4	1550	1240
CC(C)=CCN1CCCC(/C=C/c2ccccc2)C1 (stereo not drawn)	38	1330	180
C(=C\C1CCCN(CCc2ccccc2)C1)/c1ccccc1 (stereo not drawn)	6	> 10000	2400
C(=C\C1CCCNC1)/c1ccccc1 (stereo not drawn)	423	> 10000	> 10000
C(=C\C1CCCN(CCCOc2ccccc2)C1)/c1ccccc1 (stereo not drawn)	33	–	–
C=CCCCN1CCCC(/C=C/c2ccccc2)C1 (stereo not drawn)	12	–	–
C(=C/C1CCCNC1)/c1ccccc1 (stereo not drawn)	64	> 10000	870
C(=C/C1CCCN(CCCCc2ccccc2)C1)/c1ccccc1 (stereo not drawn)	7	5840	1440
C(=C/C1CCCN(CCC2CCCCC2)C1)/c1ccccc1 (stereo not drawn)	7	> 10000	5440
O=C(CN1CCCC(/C=C\c2ccccc2)C1)Nc1ccccc1 (stereo not drawn)	640	–	–
C=CCN1CCCC(/C=C/c2ccccc2)C1 (stereo not drawn)	4	> 10000	> 10000
C(=C/C1CCCN(CCc2ccccc2)C1)/c1ccccc1 (stereo not drawn)	0.8	630	120

More lines, now with the values ahead:

IC50 [1] [nM]	IC50 (D(1A) dopamine receptor) [nM]	IC50 (D(2) dopamine receptor) [nM]	Compound
10	–	–	C(=C\C1CCCN(Cc2ccccc2)C1)/c1ccccc1 (stereo not drawn)
23	–	–	O=C(NCCCCN1CCCC(/C=C\c2ccccc2)C1)C12C[C@H]3C[C@@H](C1)C[C@@H](C2)C3 (stereo partly drawn)
1	320	160	CC(C)=CCN1CCCC(/C=C\c2ccccc2)C1 (stereo not drawn)
0.6	2200	150	C(=C/C1CCCN(CCCc2ccccc2)C1)/c1ccccc1 (stereo not drawn)
27	–	–	C(=C/C1CCCN(CCCSc2nc3ccccc3s2)C1)/c1ccccc1 (stereo not drawn)
15	–	–	O=C(CCCN1CCCC(/C=C\c2ccccc2)C1)c1ccccc1 (stereo not drawn)
2	> 10000	1120	C(=C/C1CCCN(C2CCCCC2)C1)/c1ccccc1 (stereo not drawn)
6	> 10000	5120	C(=C\C1CCCN(C2CCCCC2)C1)/c1ccccc1 (stereo not drawn)
23	–	–	O=C1c2ccccc2S(=O)(=O)N1CCCCN1CCCC(/C=C/c2ccccc2)C1 (stereo not drawn)
15	–	–	C(=C/C1CCCN(CCCOc2ccccc2)C1)/c1ccccc1 (stereo not drawn)
